Assays:
[1] = Lipophilicity, logP of the compound; conditions: octanol/water
[2] = Lipophilicity, logD of compound at pH 7; conditions: buffer
[3] = Dissociation constant, pKa of the compound; type: physicochemical
[4] = target: Neuronal acetylcholine receptor; alpha6/beta2 (Homo sapiens, UniProt P17787+Q15825); assay: Binding affinity to nACh alpha6beta2 receptor (unknown origin) assessed as inhibition constant; type: protein-complex assay
[5] = Lipophilicity, logD of compound at pH 7.4; type: physicochemical; conditions: buffer
[6] = target: Glutamate NMDA receptor; GRIN1/GRIN2A (Homo sapiens, UniProt Q05586+Q12879); assay: Binding affinity to GluN1/GluN2A receptor (unknown origin) assessed as inhibition constant; type: protein-complex assay
Sequence of Glutamate NMDA receptor; GRIN1/GRIN2A (Q12879 whole entry, other chains not shown): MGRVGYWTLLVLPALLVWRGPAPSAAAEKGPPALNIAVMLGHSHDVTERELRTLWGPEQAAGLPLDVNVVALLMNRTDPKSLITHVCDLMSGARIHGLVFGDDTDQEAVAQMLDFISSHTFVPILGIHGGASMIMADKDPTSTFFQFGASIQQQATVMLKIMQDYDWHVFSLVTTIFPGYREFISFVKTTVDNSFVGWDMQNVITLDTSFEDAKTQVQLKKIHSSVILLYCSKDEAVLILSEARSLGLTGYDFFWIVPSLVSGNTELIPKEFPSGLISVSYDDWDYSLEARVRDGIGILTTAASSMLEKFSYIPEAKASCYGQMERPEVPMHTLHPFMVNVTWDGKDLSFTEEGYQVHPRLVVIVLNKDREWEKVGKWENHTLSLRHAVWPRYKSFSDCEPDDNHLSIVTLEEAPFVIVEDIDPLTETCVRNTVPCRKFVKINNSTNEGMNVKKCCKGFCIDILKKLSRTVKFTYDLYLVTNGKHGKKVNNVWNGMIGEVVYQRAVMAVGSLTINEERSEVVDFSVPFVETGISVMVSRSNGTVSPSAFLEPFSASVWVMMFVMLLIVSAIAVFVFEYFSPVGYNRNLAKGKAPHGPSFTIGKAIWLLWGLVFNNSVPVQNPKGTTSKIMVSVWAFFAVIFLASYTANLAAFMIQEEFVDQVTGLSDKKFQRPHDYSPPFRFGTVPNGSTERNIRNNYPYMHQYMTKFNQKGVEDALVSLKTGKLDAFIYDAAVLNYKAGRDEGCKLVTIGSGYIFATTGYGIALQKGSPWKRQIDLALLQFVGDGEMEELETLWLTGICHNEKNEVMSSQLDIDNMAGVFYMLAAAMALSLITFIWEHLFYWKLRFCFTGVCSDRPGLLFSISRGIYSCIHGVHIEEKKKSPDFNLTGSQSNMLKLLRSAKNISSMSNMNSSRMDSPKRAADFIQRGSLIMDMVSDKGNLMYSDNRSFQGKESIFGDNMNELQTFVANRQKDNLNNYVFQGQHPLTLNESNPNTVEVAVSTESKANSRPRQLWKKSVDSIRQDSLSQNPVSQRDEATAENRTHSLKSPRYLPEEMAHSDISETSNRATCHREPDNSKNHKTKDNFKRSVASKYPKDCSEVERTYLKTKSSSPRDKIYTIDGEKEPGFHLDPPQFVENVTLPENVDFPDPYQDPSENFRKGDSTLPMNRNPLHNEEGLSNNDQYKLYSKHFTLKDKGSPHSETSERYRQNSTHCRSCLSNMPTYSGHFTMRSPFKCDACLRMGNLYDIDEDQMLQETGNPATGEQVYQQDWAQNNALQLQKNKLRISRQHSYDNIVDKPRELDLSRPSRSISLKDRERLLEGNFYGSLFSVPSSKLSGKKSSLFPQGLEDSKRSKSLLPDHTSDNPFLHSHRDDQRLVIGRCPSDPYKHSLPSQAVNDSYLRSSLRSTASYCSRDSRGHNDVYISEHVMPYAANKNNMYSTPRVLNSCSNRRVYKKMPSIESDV

[7] = Adrenal to liver ratio in rat measured at 60 mins; type: ADME, tissue-based; conditions: 1 h
[8] = target: T1, Kappa-type opioid receptor (Homo sapiens, UniProt P41145); assay: Binding affinity to kappa opioid receptor (unknown origin) assessed as inhibition constant
T1 sequence (P41145 whole entry): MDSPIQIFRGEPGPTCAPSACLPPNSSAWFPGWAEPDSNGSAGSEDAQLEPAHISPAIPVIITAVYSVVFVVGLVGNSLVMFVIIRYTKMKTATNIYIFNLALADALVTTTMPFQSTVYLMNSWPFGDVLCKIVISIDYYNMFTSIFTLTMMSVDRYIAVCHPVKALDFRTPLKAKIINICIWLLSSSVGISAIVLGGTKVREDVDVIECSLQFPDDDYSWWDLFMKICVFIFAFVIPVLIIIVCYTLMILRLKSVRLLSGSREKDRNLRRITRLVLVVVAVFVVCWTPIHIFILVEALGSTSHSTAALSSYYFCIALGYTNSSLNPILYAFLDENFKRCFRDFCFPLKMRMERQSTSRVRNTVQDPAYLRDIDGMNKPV

[9] = Selectivity ratio of Ki for kappa opioid receptor (unknown origin) for Ki for mu opioid receptor (unknown origin)
[10] = Selectivity ratio of Ki for kappa opioid receptor (unknown origin) for Ki for delta opioid receptor (unknown origin)
Mu-type opioid receptor = Mu-type opioid receptor (Homo sapiens, UniProt P35372)
Sequence of Mu-type opioid receptor (P35372 whole entry): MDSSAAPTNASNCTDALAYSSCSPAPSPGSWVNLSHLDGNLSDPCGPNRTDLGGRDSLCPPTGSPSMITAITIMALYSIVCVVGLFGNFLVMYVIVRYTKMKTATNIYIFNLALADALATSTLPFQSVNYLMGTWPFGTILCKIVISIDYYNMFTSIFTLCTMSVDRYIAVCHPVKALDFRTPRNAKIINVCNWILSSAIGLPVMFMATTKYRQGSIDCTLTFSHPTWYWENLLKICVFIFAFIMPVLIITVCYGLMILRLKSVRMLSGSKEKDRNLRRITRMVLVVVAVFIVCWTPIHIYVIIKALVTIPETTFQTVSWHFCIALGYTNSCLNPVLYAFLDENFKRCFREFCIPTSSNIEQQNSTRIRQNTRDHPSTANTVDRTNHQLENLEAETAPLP

[11] = target: T1, Kappa-type opioid receptor; assay: Binding affinity to kappa opioid receptor (unknown origin)
[12] = target: T2, Gamma-aminobutyric acid receptor subunit alpha-1 (Homo sapiens, UniProt P14867); assay: Binding affinity to GABAa alpha1 (unknown origin) assessed as inhibition constant
T2 sequence (P14867 whole entry): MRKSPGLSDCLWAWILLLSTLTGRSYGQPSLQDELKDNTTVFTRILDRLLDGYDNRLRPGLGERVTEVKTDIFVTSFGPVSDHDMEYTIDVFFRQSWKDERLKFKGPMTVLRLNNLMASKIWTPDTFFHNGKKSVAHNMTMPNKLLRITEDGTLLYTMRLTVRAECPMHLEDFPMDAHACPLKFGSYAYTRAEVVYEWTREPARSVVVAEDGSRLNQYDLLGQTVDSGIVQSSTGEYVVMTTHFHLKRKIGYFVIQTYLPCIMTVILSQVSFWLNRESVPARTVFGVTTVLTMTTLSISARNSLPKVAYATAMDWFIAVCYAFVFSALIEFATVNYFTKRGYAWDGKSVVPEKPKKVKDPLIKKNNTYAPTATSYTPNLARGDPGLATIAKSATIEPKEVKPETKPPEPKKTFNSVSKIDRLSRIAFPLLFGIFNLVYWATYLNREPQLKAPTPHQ

[13] = target: T3, Gamma-aminobutyric acid receptor subunit alpha-2 (Homo sapiens, UniProt P47869); assay: Binding affinity to GABAa alpha2 (unknown origin) assessed as inhibition constant
T3 sequence (P47869 whole entry): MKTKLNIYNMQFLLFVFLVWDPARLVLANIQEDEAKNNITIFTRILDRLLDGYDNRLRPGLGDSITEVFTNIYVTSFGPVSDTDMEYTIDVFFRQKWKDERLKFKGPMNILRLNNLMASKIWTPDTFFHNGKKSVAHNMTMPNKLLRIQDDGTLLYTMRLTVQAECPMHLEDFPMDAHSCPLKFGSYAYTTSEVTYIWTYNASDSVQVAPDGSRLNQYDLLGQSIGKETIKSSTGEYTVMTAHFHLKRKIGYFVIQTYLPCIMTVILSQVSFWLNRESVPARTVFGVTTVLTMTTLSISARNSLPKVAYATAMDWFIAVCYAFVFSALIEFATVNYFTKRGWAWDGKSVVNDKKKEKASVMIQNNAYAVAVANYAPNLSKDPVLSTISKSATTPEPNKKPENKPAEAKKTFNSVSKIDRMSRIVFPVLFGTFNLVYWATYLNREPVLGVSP

[14] = target: T4, Gamma-aminobutyric acid receptor subunit alpha-3 (Homo sapiens, UniProt P34903); assay: Binding affinity to GABAa alpha3 (unknown origin) assessed as inhibition constant
T4 sequence (P34903 whole entry): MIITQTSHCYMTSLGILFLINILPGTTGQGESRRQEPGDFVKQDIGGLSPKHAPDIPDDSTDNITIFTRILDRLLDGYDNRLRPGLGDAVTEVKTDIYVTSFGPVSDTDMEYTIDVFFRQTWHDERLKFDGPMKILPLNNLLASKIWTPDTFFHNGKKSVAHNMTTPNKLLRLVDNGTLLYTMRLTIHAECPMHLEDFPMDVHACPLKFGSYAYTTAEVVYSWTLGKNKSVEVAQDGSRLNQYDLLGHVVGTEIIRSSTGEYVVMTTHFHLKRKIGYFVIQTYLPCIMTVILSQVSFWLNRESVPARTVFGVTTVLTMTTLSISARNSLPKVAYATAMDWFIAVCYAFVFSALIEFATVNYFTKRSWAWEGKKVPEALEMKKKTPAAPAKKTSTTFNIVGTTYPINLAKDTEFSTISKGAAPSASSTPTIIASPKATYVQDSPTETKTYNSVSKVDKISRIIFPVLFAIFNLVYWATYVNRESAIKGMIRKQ

[15] = Binding affinity to GABA/BZ receptor (unknown origin) assessed as inhibition constant; set-up: species or system Homo sapiens
[16] = Half life in rhesus monkey; type: ADME, Macaca mulatta; conditions: in vivo
[17] = Drug distribution in rhesus monkey temporal cortex assessed as dissociation constant; type: ADME, tissue-based, Macaca mulatta
[18] = Drug distribution in rhesus monkey temporal cortex assessed as maximum binding; type: ADME, tissue-based, Macaca mulatta
[19] = Drug distribution in rhesus monkey striatum assessed as maximum binding; type: ADME, tissue-based, Macaca mulatta
[20] = target: T5, Gamma-aminobutyric acid receptor subunit alpha-5 (Homo sapiens, UniProt P31644); assay: Binding affinity to GABAa alpha5 (unknown origin) assessed as inhibition constant
T5 sequence (P31644 whole entry): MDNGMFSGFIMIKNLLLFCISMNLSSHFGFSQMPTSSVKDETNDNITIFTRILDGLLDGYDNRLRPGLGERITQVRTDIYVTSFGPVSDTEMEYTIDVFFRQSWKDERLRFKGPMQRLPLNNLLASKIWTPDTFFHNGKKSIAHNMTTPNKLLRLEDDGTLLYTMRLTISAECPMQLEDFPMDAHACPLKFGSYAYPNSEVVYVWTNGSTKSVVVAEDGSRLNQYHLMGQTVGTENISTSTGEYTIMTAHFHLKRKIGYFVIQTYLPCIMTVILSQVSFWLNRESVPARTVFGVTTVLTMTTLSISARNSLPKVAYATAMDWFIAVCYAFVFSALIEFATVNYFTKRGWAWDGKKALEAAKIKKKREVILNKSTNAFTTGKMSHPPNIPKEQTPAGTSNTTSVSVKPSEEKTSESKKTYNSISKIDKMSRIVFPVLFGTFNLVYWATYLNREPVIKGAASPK

Sequence of Neuronal acetylcholine receptor; alpha6/beta2 (P17787 whole entry): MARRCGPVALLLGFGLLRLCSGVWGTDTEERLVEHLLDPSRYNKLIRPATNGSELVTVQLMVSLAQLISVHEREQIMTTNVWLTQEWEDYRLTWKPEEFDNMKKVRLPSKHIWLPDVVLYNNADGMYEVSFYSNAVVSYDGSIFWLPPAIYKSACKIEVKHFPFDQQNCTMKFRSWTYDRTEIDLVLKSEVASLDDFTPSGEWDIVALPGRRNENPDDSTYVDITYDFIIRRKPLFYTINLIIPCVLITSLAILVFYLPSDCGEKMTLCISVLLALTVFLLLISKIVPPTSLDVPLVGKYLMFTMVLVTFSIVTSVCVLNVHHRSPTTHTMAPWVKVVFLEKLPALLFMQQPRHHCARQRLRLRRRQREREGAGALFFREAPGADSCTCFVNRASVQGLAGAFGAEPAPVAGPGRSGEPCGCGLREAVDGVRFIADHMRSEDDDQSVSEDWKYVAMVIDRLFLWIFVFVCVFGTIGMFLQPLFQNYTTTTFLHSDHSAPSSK
Sequence of Neuronal acetylcholine receptor; alpha6/beta2 (Q15825 whole entry): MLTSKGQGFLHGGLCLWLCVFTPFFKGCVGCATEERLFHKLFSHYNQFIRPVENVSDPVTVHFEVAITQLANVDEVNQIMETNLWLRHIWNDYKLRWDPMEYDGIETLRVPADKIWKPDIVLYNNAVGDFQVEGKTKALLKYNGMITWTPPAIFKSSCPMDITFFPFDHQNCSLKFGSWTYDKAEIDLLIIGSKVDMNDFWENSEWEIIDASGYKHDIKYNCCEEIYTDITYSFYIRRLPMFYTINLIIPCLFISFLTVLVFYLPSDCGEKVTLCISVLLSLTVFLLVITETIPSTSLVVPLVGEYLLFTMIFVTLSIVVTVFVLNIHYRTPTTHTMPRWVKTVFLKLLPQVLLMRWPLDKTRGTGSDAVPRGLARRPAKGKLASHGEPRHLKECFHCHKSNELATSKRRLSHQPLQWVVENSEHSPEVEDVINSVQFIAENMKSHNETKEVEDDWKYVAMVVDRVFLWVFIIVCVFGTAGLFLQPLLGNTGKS

| Structure (SMILES) | logP [1] | logD [2] | pKa [3] | also measured |
| --- | --- | --- | --- | --- |
| [11CH3]OC(=O)c1cncn1Cc1ccccc1 | 1.18 | 2.19 | 4.08 |  |
| FC(F)([18F])C(Cl)Br (centres undefined) | 2.28 | 2.33 |  |  |
| [18F]CCCc1cncc(OC[C@@H]2CCN2)c1 | 0.86 | -1.44 | 9.09 | Ki [4]: 0.67 nM |
| Oc1ccc2c(c1)CCN(CCCCc1ccccc1[18F])C[C@@H]2O | 4.03 | 2.07 | 8.68 | logD [5]: 2.2 |
| O=S1(=O)c2cc(N3CCN4CCC3CC4)ccc2-c2cccc([18F])c21 | 2.71 | 1.72 | 8.68 |  |
| CCOC(=O)c1ncn2c1CN(C)C(=O)c1cc([18F])ccc1-2 | 1.11 |  | 0.86 |  |
| [11CH3]C(=O)c1ccc2c(c1)CCN(CCCCc1ccccc1)CC2O (centres undefined) | 4.14 | 2.94 | 8.78 |  |
| C[C@H](c1ccc(Cl)cc1)n1cncc1C(=O)OCC[18F] | 2.25 | 3.76 | 3.76 |  |
| [11CH3]Oc1cccc(-c2c(O)c3c(I)cc(Cl)cc3[nH]c2=O)c1 | 3.81 | 1.91 | 8.83 | Ki [6]: 10300 nM |
| CN(C)c1cccc2c(S(=O)(=O)N/N=C/c3ccc([18F])cc3)cccc12 | 4.94 | 3.92 |  |  |
| CC(OC(F)F)C(F)(F)F (centres undefined) | 2.47 | 2.12 |  |  |
| C[11CH2]OC(=O)c1cncn1[C@H](C)c1ccccc1 | 1.83 | 3.05 | 4.23 |  |
| CCOC(=O)c1ncn2c1CN([11CH3])C(=O)c1cc(F)ccc1-2 | 1.11 |  | 0.86 |  |
| CN([11CH3])Cc1ccccc1Sc1ccc(C#N)cc1N | 3.31 | 0.89 | 9.43 |  |
| N#Cc1cc([18F])cc(C#Cc2ccccn2)c1 | 3.25 | 3.38 | 1.89 |  |
| C[C@H](c1ccccc1)n1cncc1C(=O)OCC[18F] | 1.69 | 2.99 | 3.83 | Ratio [7]: 14.48 |
| CN1CC=C[C@H]1COc1cccnc1[18F] | 1.21 | 0.3 | 8.09 | Ki [4]: 0.5 nM |
| CC(C)C[C@H](N)[11C](=O)O | -0.29 | -1.7 | 10.2 |  |
| CCN(CCF)C[C@@H]1CN(C(=O)COC)CCN1C(=O)Cc1ccc(C)c(C)c1 |  |  |  | Ki [8]: 0.43 nM; Ratio Ki [9]: 17; Ratio Ki [10]: 323 |
| NC(=O)c1ccc(Oc2ccc(CN3CCC[C@H]3c3cccnc3)cc2)c([18F])c1 | 3.27 | 2.07 | 8.45 |  |
| [18F]CCCc1cncc(OC[C@@H]2C=CCN2)c1 | 1.42 | 0.71 | 8.21 | Ki [4]: 0.36 nM |
| Cc1cn([C@H]2C[C@H]([18F])[C@@H](CO)O2)c(=O)[nH]c1=O [ALOVUDINE F-18] | -0.41 | -0.2 | 13.7 |  |

| Structure (SMILES) | logP [1] | logD [2] | pKa [3] | also measured |
| --- | --- | --- | --- | --- |
| N[11C](=O)c1ccc(Oc2ccc(CN3CCC[C@H]3c3cccnc3)cc2)c(Cl)c1 | 3.67 | 2.71 | 8.45 | Ki (Mu-type opioid receptor): 25.8 nM; Ki [8]: 0.72 nM; Kd [11]: 0.028 nM |
| CCN(CCF)C[C@@H]1CN(C(=O)CO[11CH3])CCN1C(=O)Cc1ccc(C)c(C)c1 | 1.53 |  | 7.51 |  |
| C[C@@H](C[11CH3])CCc1cnc(Cl)c(/C=C/c2ccncc2)c1 | 4.94 |  |  | Ki [4]: 0.077 nM |
| CCOC(=O)c1ncn2c1CN(C)C(=O)c1cc(N=[N+]=[N-])ccc1-2 [Ro-154513] |  |  |  | Ki [12]: 7 nM; Ki [13]: 7 nM; Ki [14]: 7 nM; Ki [15]: 0.7 nM |
| [18F]c1ncccc1OC[C@H]1CCN1 |  |  | 8.95 |  |
| CCN(CC)C[C@@H]1CN(C(=O)COC)CCN1C(=O)Cc1ccc(C)c(C)c1 |  |  |  | Ki [8]: 0.28 nM |
| N[C@H](C[C@H]1CC(C(=O)O)=NN1c1ccc(CCCF)cc1)C(=O)O |  |  |  | Ki [6]: 52 nM |
| [18F]c1ccc2cnn(N=C3NCCN3)c2c1 | 1.11 | 0.09 | 7.94 |  |
| [18F]c1ccc(C2CC3CCCC2N3)cn1 (single isomer, unassigned; (-)) | 1.75 | -0.76 | 9.28 |  |
| CN1C2CCCC1C(c1cncc(-c3cccc([18F])n3)c1)C2 (centres undefined) | 2.89 |  | 9.24 | Ki [4]: 0.95 nM |
| CC(=O)N(Cc1ccccc1OCC[18F])c1ccccc1Oc1ccccc1 | 4.51 |  |  |  |
| [11CH3]OCc1scnc1N1CCN(C[C@H]2COc3ccccc3O2)CC1 | 2.65 | 2.02 | 7.21 |  |
| [11CH3]n1c2c(c3ccccc31)C[C@@]1(O)[C@H]3Cc4ccc(O)c5c4[C@@]1(CCN3CC1CC1)[C@H]2O5 | 3.31 |  | 14.2 |  |
| FCOC(C(F)(F)F)C(F)(F)[18F] (centres undefined) | 2.24 | 2.5 |  |  |
| COc1cnc(OCc2cn(-c3ccc([18F])c(C)c3)nn2)nc1 | 2.76 | 1.55 | 0.73 |  |
| CCCc1cc(Cl)cc2[nH]c(=O)c(-c3cccc(O[11CH3])c3)c(O)c12 | 3.78 |  | 9.06 | Ki [6]: 7200 nM |
| CCN(CC)C[C@@H]1CN(C(=O)CO[11CH3])CCN1C(=O)Cc1ccc(C)c(C)c1 | 1.67 |  | 8.6 | Ki [8]: 0.28 nM |
| CN([11CH3])[C@]1(c2ccccc2Cl)CCCCC1=O | 2.84 | 2.93 | 6.92 | half-life [16]: > 15 min; Kd [17]: 7000 nM; Kd [18]: 4000 nM; Kd [19]: 14000 nM |
| CN1C2CCCC1C(c1cncc(-c3cccnc3[18F])c1)C2 (centres undefined) | 2.47 |  | 9.18 | Ki [4]: 0.06 nM |
| FC(F)OC(F)C(F)(F)F (centres undefined) | 2.16 | 1.88 |  |  |
| CCOC(=O)c1ncn2c1CN([11CH3])C(=O)c1cc(N=[N+]=[N-])ccc1-2 |  |  | 8.45 | Ki [20]: ~0.5 nM |

From ChEMBL document CHEMBL5338767, “A Molecular Toolbox of Positron Emission Tomography Tracers for General Anesthesia Mechanism Research” (J Med Chem, 2023)
